Experimental data reported in patent publication US10899773B2 (priority 2014, dated 2021).

Columns and labels:
Test in all cases: cells
Format in all cases: cell-based
293T = conditions: Homo sapiens, HEK-293T, 72 h, read-out: 293T IC50 nM
MES SA = conditions: Homo sapiens, 72 h, read-out: MES SA IC50 nM
MES SA DX = conditions: Homo sapiens, 72 h, read-out: MES SA DX IC50 nM

SMILES | IC50 (293T) | IC50 (MES SA) | IC50 (MES SA DX)
COc1c2c(c(O)c3c4c(c(C)cc13)C1C3OC5(C(OC)OC)OC15[C@]1(CO1)[C@]3(O)O4)C(=O)[C@@H](O)C[C@@H]2OC1CC(C)(O)C(OC(C)=O)C(C)O1 (stereo partly drawn) [Trox12] | 14.9 nM | 18.1 nM | > 1000 nM
COc1c2c(c(O)c3c4c(c(C)cc13)C1C3OC5(C(OC)OC)OC15[C@]1(CO1)[C@]3(OC1CC(O)C(O)(C(C)=O)C(C)O1)O4)C(=O)[C@@H](O)C[C@@H]2OC1CC(C)(O)C(OC(C)=O)C(C)O1 (stereo partly drawn) [Trox13] | 0.702 nM | 0.74 nM | 204 nM
COc1c2c(c(O)c3c4c(c(C)cc13)C1C3OC5(C(OC)OC)OC15[C@]1(CO1)[C@]3(OC1CC(O)C(O)(C(C)=O)C(C)O1)O4)C(=O)[C@@H](O)C[C@@H]2OC1CC(C)(O)C(O)C(C)O1 (stereo partly drawn) [Trox14] | 8.02 nM | 11.1 nM | > 1000 nM
COc1c2c(c(O)c3c4c(c(C)cc13)C1C3OC5(C(OC)OC)OC15[C@]1(CO1)[C@]3(OC1CC(OC(C)=O)C(O)(C(C)=O)C(C)O1)O4)C(=O)[C@@H](O)C[C@@H]2O (stereo partly drawn) [Trox15] | 95.4 nM | 157 nM | > 1000 nM
COc1c2c(c(O)c3c4c(c(C)cc13)C1C3OC5(C(OC)OC)OC15[C@]1(CO1)[C@]3(OC1CC(OC(C)=O)C(O)(C(C)=O)C(C)O1)O4)C(=O)[C@@H](O)C[C@@H]2OC1CC(C)(O)C(OC(C)=O)C(C)O1 (stereo partly drawn) [Trox16] | 2.81 nM | 2.02 nM | > 1000 nM
